From PubChem BioAssay (NCI) come the findings set out here.

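96-well plates; 48 h exposure; 5 concentrations. Endpoints by linear interpolation between flanking doses. Not reached: highest tested concentration assigned. TGI marks complete inhibition of growth.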

Common to all, as to test: NCI-60 cell line screen, 48 h
Experiment [1] concerns TK-10 renal.
The subject of experiment [2] is OVCAR-3 ovarian.
Experiment [3] relates to UO-31 renal.
The subject of experiment [4] is EKVX NSCLC.
For experiment [5], the system named is NCI-H23 lung.
Experiment [6] concerns 786-0 renal.
The subject of experiment [7] is OVCAR-5 ovarian.
In experiment [8] the test system is HT29 colon.
The subject of experiment [9] is NCI/ADR-RES ovarian.
For experiment [10], the system named is SN12C renal.

`COC(=O)CCc1cc(OC)c2c(c1)[C@H](C(=O)OC)[C@@H](c1ccc(O)c(OC)c1)O2`: the TGI in experiment [1], in experiment [2], in experiment [3], in experiment [4], in experiment [5] and in [6] was greater than 100 µM each time. Also, the TGI in experiment [7], in experiment [8], in [9] and in experiment [10] was greater than 100 µM in each case.

`CCCCn1cnc2c(c(CC#N)nn2-c2ccccc2)c1=N`: the TGI in [1], in [2], in experiment [3], in experiment [4], in [5] and in experiment [6] was greater than 100 µM in each case. Also, the TGI in [7], in experiment [8], in experiment [9] and in experiment [10] was greater than 100 µM each time.

On to `C=CCNC(=S)N=Nc1c(O)[nH]c2ccc([N+](=O)[O-])cc12`, for which the TGI in [1], in experiment [2], in experiment [3], in [4], in experiment [5] and in experiment [7] was greater than 100 µM each time. The TGI in experiment [8], in experiment [9] and in experiment [10] was greater than 100 µM each time.

On to `Cc1cc2c([N+](=O)[O-])cc3c(c2o1)C(=O)C=CC3=O`, for which the TGI came out at 5.72 µM in [1]; 19 µM in experiment [2]; 3.62 µM in [3]; 11.5 µM in experiment [4]; 34.9 µM in experiment [5]; 3.59 µM in experiment [6]. Also, the TGI in experiment [7] is 35.1 µM; in [8], 4.67 µM; in [9] it was 65.1 µM; in experiment [10], 12.2 µM.

Turning to `CCOC(=O)c1c(-c2ccccc2)c(-c2ccccc2)cn1C`, the TGI in experiment [1], in [2], in experiment [3], in experiment [4], in experiment [5] and in experiment [6] was greater than 10 µM throughout. Moreover, the TGI in experiment [7], in experiment [8], in experiment [9] and in experiment [10] was greater than 10 µM throughout.

With `CC(C)(C)OC(=O)NCCC(N)=S`, the TGI in experiment [1], in [2], in experiment [3], in experiment [4], in experiment [5] and in [6] was greater than 100 µM throughout. In addition, the TGI in experiment [7], in experiment [8], in experiment [9] and in experiment [10] was greater than 100 µM throughout.

As for `COc1ccc(S(=O)(=O)N2C(=O)CCC2C(=O)NN)cc1` (stereo not drawn), the TGI in experiment [1], in experiment [2], in experiment [3], in experiment [4], in [5] and in experiment [6] was greater than 100 µM each time. Besides, the TGI in [7], in [8], in experiment [9] and in experiment [10] was greater than 100 µM each time.

Turning to `CC1CN=C(N(C(=O)Nc2ccc(F)c(Cl)c2)c2ccccc2)S1` (stereo not drawn), the TGI in experiment [1] was 68.4 µM; in experiment [2] it was greater than 100 µM; in experiment [3] it was 98.1 µM; in [4], 62.4 µM; in experiment [5], 52 µM; in experiment [6], 56 µM. Besides, the TGI in [7] stood at 76.3 µM; in [8] it was 58 µM; in experiment [9] it was 43 µM; in [10], 49.9 µM.

For the molecule `Clc1ccc(CSCCc2ccncc2)cc1Cl`, the TGI was greater than 100 µM in experiment [1]; 33.1 µM in experiment [2]; 56.9 µM in [3]; 57 µM in experiment [4]; 51.1 µM in experiment [5]; 33.1 µM in [6]. In addition, the TGI turned out to be 66.8 µM in experiment [7], 31.2 µM in [8], 50.5 µM in experiment [9] and 42.2 µM in experiment [10].

In the case of `O=C1CC(C(O)(C(F)(F)F)C(F)(F)Cl)CCC1C(O)(C(F)(F)F)C(F)(F)Cl` (stereo not drawn), the TGI in experiment [1], in [2], in experiment [4], in [5], in experiment [6] and in [7] was greater than 10 µM each time. Moreover, the TGI in experiment [8], in experiment [9] and in [10] was greater than 10 µM in each case.

As for `COC(=O)c1cc2c(cc1CC1Cc3cc4c(cc3C1)CCC4)CCC2`, the TGI in [1], in [2], in experiment [3], in experiment [4], in experiment [5] and in experiment [6] was greater than 100 µM in each case. Besides, the TGI in experiment [7], in [8], in experiment [9] and in experiment [10] was greater than 100 µM each time.

With `S=C(/N=c1\sc(Nc2ccc(Cl)cc2)nc2sc3c(c12)CCN(N1CCc2c(sc4nc(Nc5ccc(Cl)cc5)s/c(=N\C(=S)Nc5ccc(Cl)cc5)c24)C1)C3)Nc1ccc(Cl)cc1`, the TGI in experiment [1] is greater than 100 µM; in [2], greater than 100 µM; in experiment [3] it was greater than 100 µM; in [4], greater than 100 µM; in [5], greater than 100 µM; in experiment [6] it was 31.9 µM. The TGI in [7] was 54.2 µM; in experiment [8] it was 36.1 µM; in experiment [9], greater than 100 µM; in [10], 38.5 µM.

For `Cc1cc(-c2nc3ccccc3s2)ccc1NC(=O)[C@@H](N)CCCCN`, the TGI in experiment [1] amounted to 23.2 µM; in [2], 26.3 µM; in experiment [3], 19.3 µM; in experiment [4], 25.1 µM; in experiment [5], 17.5 µM; in experiment [6], 13.2 µM. In addition, the TGI was found to be 25.7 µM in [7], 16.9 µM in experiment [8], 36.5 µM in [9] and 32.9 µM in experiment [10].
